According to US20220281848A1, “PYRAZOLE-SUBSTITUTED PYRROLIDINONES AS HERBICIDES” (FMC Corporation, priority 2019, published 2022):

Tested on: plants
Assay: Test D pre-emergence, other plants of Tables D1 and D3
Assay type: in vivo
Conditions: 20 DAA; for damage to plant (100=total damage to plant; 0=no damage to plant), BIDPI / damage to plant (100=total damage to plant; 0=no damage to plant), BRAPL / damage to plant (100=total damage to plant; 0=no damage to plant), CYPES / damage to plant (100=total damage to plant; 0=no damage to plant), EPHHL / damage to plant (100=total damage to plant; 0=no damage to plant), GLXMA / damage to plant (100=total damage to plant; 0=no damage to plant), IPOHE / damage to plant (100=total damage to plant; 0=no damage to plant), SORVU: preemergent; for CHEAL damage rating / GALAP damage rating / KCHSC damage rating / LOLPE damage rating / POAAN damage rating / STEME damage rating / VERPE damage rating: pre-emergence, 100=total damage, 0=no damage
Method in brief: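 Damage was rated visually from 0 (none) to 100 (total), at 20 DAA for pre-emergence and 15 d for post-emergence. Plants grew from safener-treated seed in a glasshouse at 24/18° C. or 20/16° C. day/night, 65% humidity, watered twice daily.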

## CN1CC(c2cc(C(F)(F)F)n(C)n2)C(C(=O)Nc2ccc(F)cc2C(C)(F)F)C1=O (racemic) [Compound 26]
Rate 15
  damage to plant (100=total damage to plant; 0=no damage to plant), BIDPI: 0
  damage to plant (100=total damage to plant; 0=no damage to plant), BRAPL: 0
  damage to plant (100=total damage to plant; 0=no damage to plant), CYPES: 0
  damage to plant (100=total damage to plant; 0=no damage to plant), EPHHL: 0
  damage to plant (100=total damage to plant; 0=no damage to plant), GLXMA: 0
  damage to plant (100=total damage to plant; 0=no damage to plant), IPOHE: 0
  damage to plant (100=total damage to plant; 0=no damage to plant), SORVU: 0
Rate 30
  damage to plant (100=total damage to plant; 0=no damage to plant), BIDPI: 0
  damage to plant (100=total damage to plant; 0=no damage to plant), BRAPL: 70
  damage to plant (100=total damage to plant; 0=no damage to plant), CYPES: 0
  damage to plant (100=total damage to plant; 0=no damage to plant), EPHHL: 0
  damage to plant (100=total damage to plant; 0=no damage to plant), GLXMA: 0
  damage to plant (100=total damage to plant; 0=no damage to plant), IPOHE: 0
  damage to plant (100=total damage to plant; 0=no damage to plant), SORVU: 0
Rate 60
  damage to plant (100=total damage to plant; 0=no damage to plant), BIDPI: 0
  damage to plant (100=total damage to plant; 0=no damage to plant), BRAPL: 80
  damage to plant (100=total damage to plant; 0=no damage to plant), CYPES: 0
  damage to plant (100=total damage to plant; 0=no damage to plant), EPHHL: 0
  damage to plant (100=total damage to plant; 0=no damage to plant), GLXMA: 0
  damage to plant (100=total damage to plant; 0=no damage to plant), IPOHE: 0
  damage to plant (100=total damage to plant; 0=no damage to plant), SORVU: 0
Rate 130
  damage to plant (100=total damage to plant; 0=no damage to plant), BIDPI: 0
  damage to plant (100=total damage to plant; 0=no damage to plant), BRAPL: 80
  damage to plant (100=total damage to plant; 0=no damage to plant), CYPES: 0
  damage to plant (100=total damage to plant; 0=no damage to plant), EPHHL: 0
  damage to plant (100=total damage to plant; 0=no damage to plant), GLXMA: 0
  damage to plant (100=total damage to plant; 0=no damage to plant), IPOHE: 0
  damage to plant (100=total damage to plant; 0=no damage to plant), SORVU: 0
Rate 250
  damage to plant (100=total damage to plant; 0=no damage to plant), BIDPI: 0
  damage to plant (100=total damage to plant; 0=no damage to plant), BRAPL: 80
  damage to plant (100=total damage to plant; 0=no damage to plant), CYPES: 0
  damage to plant (100=total damage to plant; 0=no damage to plant), EPHHL: 0
  damage to plant (100=total damage to plant; 0=no damage to plant), GLXMA: 0
  damage to plant (100=total damage to plant; 0=no damage to plant), IPOHE: 0
  damage to plant (100=total damage to plant; 0=no damage to plant), SORVU: 0
Rate 500
  damage to plant (100=total damage to plant; 0=no damage to plant), BIDPI: 0
  damage to plant (100=total damage to plant; 0=no damage to plant), BRAPL: 80
  damage to plant (100=total damage to plant; 0=no damage to plant), CYPES: 10
  damage to plant (100=total damage to plant; 0=no damage to plant), EPHHL: 0
  damage to plant (100=total damage to plant; 0=no damage to plant), GLXMA: 0
  damage to plant (100=total damage to plant; 0=no damage to plant), IPOHE: 0
  damage to plant (100=total damage to plant; 0=no damage to plant), SORVU: 0
Rates 15
  CHEAL damage rating: 0
  GALAP damage rating: 0
  KCHSC damage rating: 0
  LOLPE damage rating: 0
  POAAN damage rating: 0
  STEME damage rating: 0
  VERPE damage rating: 0
Rates 30
  CHEAL damage rating: 0
  GALAP damage rating: 0
  KCHSC damage rating: 0
  LOLPE damage rating: 0
  POAAN damage rating: 0
  STEME damage rating: 0
  VERPE damage rating: 0
Rates 60
  CHEAL damage rating: 0
  GALAP damage rating: 0
  KCHSC damage rating: 0
  LOLPE damage rating: 0
  POAAN damage rating: 0
  STEME damage rating: 0
  VERPE damage rating: 0
Rates 130
  CHEAL damage rating: 0
  GALAP damage rating: 0
  KCHSC damage rating: 0
  LOLPE damage rating: 30
  POAAN damage rating: 30
  STEME damage rating: 10
  VERPE damage rating: 0
Rates 250
  CHEAL damage rating: 10
  GALAP damage rating: 0
  KCHSC damage rating: 0
  LOLPE damage rating: 90
  POAAN damage rating: 60
  STEME damage rating: 40
  VERPE damage rating: 10
Rates 500
  CHEAL damage rating: 10
  GALAP damage rating: 20
  KCHSC damage rating: 0
  LOLPE damage rating: 90
  POAAN damage rating: 100
  STEME damage rating: 70
